Test results from paper PMC12643354, “From Oxygen to Tellurium: The Impact of the Chalcogen on Nucleophilicities and Basicities of Isochalcogenourea Catalysts” (Angewandte Chemie (International Ed. in English), 2025).
Where “and” joins values, the source holds several entries; their conditions need not be identical. Equal values may be shown once. Read-outs that look alike come from different tables or passages of the source.

Legend:
[1] = cited from earlier work
[2] = Mayr nucleophilicity parameters N and sN (benzhydrylium methodology, Mayr-Patz equation); type: physicochemical; conditions: dichloromethane, 20 °C
Text: (1) Mayr-Patz Equation: lgk20^∘C=sN(N+E)
The MPE is a linear‐free‐energy relationship that characterizes electrophiles by the electrophilicity parameter E and nucleophiles by the solvent‐dependent parameters N (nucleophilicity) and s N (sensitivity toward changes in the electrophile reactivity). By using the MPE (Equation (1)), the construction of comprehensive nucleophilicity and electrophilicity scales becomes possible, which facilitate the comparison of various classes of Lewis base organocatalysts.^[ [110], [111], [112], [113], [114], [115], [116], [117], [118], [119], [120] ^]
(§1) In order to systematically investigate the influence of the chalcogen atom on the nucleophilicity of DHPB‐derived IChUs (Ch = O, S, Se, and Te), we utilized Mayr's benzhydrylium methodology.^[ [107] ^]
Figure 4 illustrates the linear correlations of the second‐order rate constants (lg k 2) with the electrophilicities E of Ar2CH^+ (18), which makes it possible to determine the Mayr nucleophilicity parameters N (and s N) for the DHPB‐derived IChUs IU3, ITU3, ISeU3, and ITeU3. […]
Figure 4 Linear correlations of second‐order rate constants (lg k 2) for the reactions of IU3, ITU3, ISeU3, and ITeU3 with Ar2CH^+ 18 (in dichloromethane at 20 °C) with the electrophilicities E of 18. The slopes of the linear correlations equal the nucleophile‐dependent sensitivity parameter s N. Intercepts on the abscissa reflect the nucleophilicity parameter N (N = –E at lg k 2 = 0).

[3] = Lewis basicity LB from equilibrium constants (photometric titrations) with benzhydrylium ions as reference Lewis acids; type: physicochemical; design: key: Mayr Lewis basicity scale; LB from K and reference LA via Eq. (3); conditions: in dichloromethane, 20 °C
Method: (a) Lewis basicity. Previously, the Mayr group established a series of benzhydrylium ions as C‐centered Lewis acid references to construct a Lewis basicity scale in dichloromethane. Substituting experimentally determined equilibrium constants K (at 20 °C) and reported Lewis acidities LA for the benzhydrylium ions (Figure 7) in Equation (3) enables one to calculate the Lewis basicity (LB) of a Lewis base.^[ [121], [127] ^] (3) lgK(20^∘C)=LA+LB
The reversibility of the formation of adducts 19 (Equation (4)), which was also apparent in the kinetics by significant positive intercepts in several of the k obs versus [IChU] plots (Supporting Information), provided the opportunity to probe the thermodynamics of the C‐N bond‐forming reactions of IChUs with benzhydrylium ions as the reference Lewis acids in more detail.^[ [95] ^] (4) IChU+Ar2CH^+(18)⇌Ar2CH-IChU^+(19)
By assuming the validity of the Beer–Lambert law for dilute solutions, equilibrium constants K (L mol^−1) were determined in photometric titrations according to Equation (5) from the initial absorbance (A 0) of the benzhydrylium ions 18 and the absorbance at equilibrium (A, Equation 5), that is, after addition of a certain amount of an IChU.^[ [109], [110], [111], [112], [113], [114], [115], [119] ^] (5) K=[19]/[18]IChU=A0−A/AIChU

[4] = Mayr nucleophilicity parameters N and sN (benzhydrylium methodology, Mayr-Patz equation); type: physicochemical; conditions: 20 °C
[5] = dichloromethane, 20 °C; cited from earlier work
[6] = Kinetics of IChU reactions with reference electrophile (lil)2CH+ (stopped-flow photometry); type: physicochemical; conditions: E = −10.04, dichloromethane, 20 °C
Text: as §1
In accordance with observations in previous studies on ITU reactivity,^[ [119] ^] mixing the strongly colored benzhydrylium tetrafluoroborates 18 with excess IChUs in dichloromethane gave rise to decolorization of the solutions due to the formation of isochalcogenouronium tetrafluoroborates 19, which are colourless (Figure 3a). […] To establish pseudo first‐order conditions and to secure a sufficient decay of the benzhydrylium's absorbance during the course of the reactions, the IChUs were employed at higher concentrations than the benzhydrylium ions. First‐order rate constants k obs (s^−1) were determined by fitting the mono‐exponential decay function in Equation (2) to the decreasing absorbance (A) of 18 during their reaction with the IChUs as exemplified for the reaction of ITeU3 with (ind)2CH^+ in Figure 3b. […]
First‐order rate constants k obs correlated linearly with the IChU concentration. Therefore, second‐order rate constants k 2 (L mol^−1 s^−1) were determined from the slope of the linear regression curves (Figure 3c ^[ [95] ^]). […]

[7] = Kinetics of IChU reactions with reference electrophile (ind)2CH+ (stopped-flow photometry); type: physicochemical; conditions: E = −8.76, dichloromethane, 20 °C
Text: as §1
(§2) In accordance with observations in previous studies on ITU reactivity,^[ [119] ^] mixing the strongly colored benzhydrylium tetrafluoroborates 18 with excess IChUs in dichloromethane gave rise to decolorization of the solutions due to the formation of isochalcogenouronium tetrafluoroborates 19, which are colourless (Figure 3a). Owing to reversibility of the C─N bond formation, generated adducts 19 from the IChU/benzhydrylium reactions were not isolated but characterized by ^1H, ^13C, and ^77Se NMR spectroscopy (the ^77Se nucleus is remarkably sensitive with observed changes of around 100 ppm when comparing the ^77Se resonances of free ISeUs with those of the corresponding selenouronium tetrafluoroborates^[ [95] ^]). The kinetics of the IChU reactions with the reference electrophiles 18 were traced by photometric methods using standard stopped‐flow techniques. To establish pseudo first‐order conditions and to secure a sufficient decay of the benzhydrylium's absorbance during the course of the reactions, the IChUs were employed at higher concentrations than the benzhydrylium ions. First‐order rate constants k obs (s^−1) were determined by fitting the mono‐exponential decay function in Equation (2) to the decreasing absorbance (A) of 18 during their reaction with the IChUs as exemplified for the reaction of ITeU3 with (ind)2CH^+ in Figure 3b. (2) A=A0e^−kobst+C […]
(§3) First‐order rate constants k obs correlated linearly with the IChU concentration. Therefore, second‐order rate constants k 2 (L mol^−1 s^−1) were determined from the slope of the linear regression curves (Figure 3c ^[ [95] ^]). Second‐order rate constants k 2 for all kinetically investigated reactions of DHPB‐derived IChUs (Ch = O, S, Se, and Te) with benzhydrylium ions 18 are gathered in Table 1.
(§4) Apart from CH2Cl2 also MeCN and THF are solvents that are commonly employed in reactions involving isochalcogenoureas. […]

[8] = Kinetics of IChU reactions with reference electrophile (pyr)2CH+ (stopped-flow photometry); type: physicochemical; conditions: E = −7.69, dichloromethane, 20 °C
Text: as §1, §2, §3, §4

[9] = Kinetics of IChU reactions with reference electrophile (dma)2CH+ (stopped-flow photometry); type: physicochemical; conditions: E = −7.02, dichloromethane, 20 °C
Text: as §1, §2, §3, §4

[10] = Brønsted basicity pKaH by chemical shift imaging NMR method in DMSO and MeCN
Method: Recently, Wiskur's group reported potentiometrically determined pK aH values (that is, the pK a of the conjugate acids) of achiral ITUs based on the BTM and DHPB scaffolds in aqueous media.^[ [89], [128] ^] […] In this work, we applied this NMR spectroscopic method to determine the pK aH values of further IChUs in DMSO and MeCN (Supporting Information).
First, a stock solution containing the analyte, two basic indicators and tetramethyl silane was prepared with the respective solvent (DMSO or acetonitrile).
Then 5-10 mg of acid were weighed into a NMR tube and subsequently covered with glass beads.
Figure S50: 5-10 mg of acid in Figure S51: Cover with 1 mm
Afterwards, 550 μL of the stock solution was layered carefully over the glass beads and the acid. The sample is then put in a 28 °C water bath (for DMSO) for 20 - 24h or left on the bench at 22 °C (for acetonitrile) for 1.5 - 2 h and then the NMR measurement was carried out at 20 °C.
Figure S52: Overlay the acid with the Figure S54: Visualized gradient after stock solution of two indicators and the 18h in DMSO (with Bromthymolblue) […]
Figure S53: Development of gradients in temperated water S145 […]
13.4 Indicator and Acid Data
Table S67: Limiting shifts (δH for the fully protonated and δL for the free base), pKas and abbreviations of indicators and acids in acetonitrile.
Table S68: Limiting shifts (δH for the fully protonated and δL for the free base), pKas and abbreviations of indicators

[11] = in acetonitrile, ref SI [25]-[30]

| Lewis basicity LB [3] | Compound | Nucleophile-specific sensitivity parameter sN [2] | Nucleophilicity parameter N [2] | also measured |
| --- | --- | --- | --- | --- |
|  | O=C(O)c1ccc([N+](=O)[O-])cc1[N+](=O)[O-] [2,4-Dinitrobenzoic acid] |  |  | Literature pKa of indicators and acids ([1]; in DMSO, ref SI [31]-[36]): 6.5 |
|  | CN(C)c1ccncc1 [4-(dimethylamino)pyridine] |  |  | Literature pKa of indicators and acids ([1]; in DMSO, ref SI [31]-[36]): 7.91; Literature pKa of indicators and acids [1, 11]: 17.95 |
| 14.18 | Fc1ccc2c(c1)SC1=N[C@H](c3ccccc3)CN12 [F-ITU2, 7-F-BTM] | 0.66 | 13.45 and 13.46 |  |
|  | c1ccc(C2CN3CC[Se]C3=N2)cc1 (centres unmarked) [ISeU1, SeTM] | 0.60 | 15.26 |  |
| 15.50 | c1ccc(C2CN3CCSC3=N2)cc1 (centres unmarked) [ITU1, tetramisole, reference compound] | 0.68 | 13.86 |  |
| 14.88 | c1ccc([C@@H]2CN3C(=N2)Sc2ccccc23)cc1 [ITU2, benzotetramisole] | 0.73 | 13.06 |  |
| 13.43 | c1ccc([C@@H]2CCN3C(=N2)Sc2ccccc23)cc1 [ITU4, HBTM] |  |  | Nucleophilicity parameter N [5]: 13.45 |
| 14.12 | CC(C)[C@@H]1CN2C(=N[C@@H]1c1ccccc1)Sc1ccccc12 [ITU5, HyperBTM] |  |  | Nucleophilicity parameter N [5]: 14.96 |
| 12.42 | CC(C)[C@@H]1CN2C(=N[C@@H]1c1ccccc1)Oc1ccccc12 [IU5, OHyperBTM] | 0.73 | 13.01 |  |
| 15.22 | COc1ccc2c(c1)SC1=N[C@H](c3ccccc3)CN12 [MeO-ITU2, 7-MeO-BTM] | 0.75 | 13.15 |  |
|  | CC1(C)OC(=O)CC(=O)O1 [Meldrum’s acid] |  |  | Literature pKa of indicators and acids ([1]; in DMSO, ref SI [31]-[36]): 7.3 |
|  | CN(C)c1cccc2cccc(N(C)C)c12 [Proton Sponge] |  |  | Literature pKa of indicators and acids ([1]; in DMSO, ref SI [31]-[36]): 7.47 |
|  | C1CCNC1 [Pyrrolidine] |  |  | Literature pKa of indicators and acids ([1]; in DMSO, ref SI [31]-[36]): 11.06; Literature pKa of indicators and acids [1, 11]: 19.56 |

| Compound | Lewis basicity LB [3] | Nucleophile-specific sensitivity parameter sN [2] | Nucleophilicity parameter N [2] | also measured |
| --- | --- | --- | --- | --- |
| c1ccc([C@@H]2CN3C(=N2)[Se]c2ccccc23)cc1 [ISeU2, SeBTM] | 15.23 | 0.63 | 14.27 |  |
| c1ccc([C@@H]2CCN3C(=N2)[Se]c2ccccc23)cc1 [ISeU4, SeHBTM] | 14.03 | 0.67 | 14.42 |  |
| CC(C)[C@@H]1CN2C(=N[C@@H]1c1ccccc1)[Se]c1ccccc12 [ISeU5, SeHyperBTM] | 14.75 | 0.58 | 16.11 | Nucleophile-specific sensitivity parameter sN ([4]; THF): 0.77; Nucleophilicity parameter N ([4]; THF): 14.19; Nucleophile-specific sensitivity parameter sN ([4]; acetonitrile): 0.57; Nucleophilicity parameter N ([4]; acetonitrile): 15.84 |
| c1ccc([C@@H]2CN3C(=N2)[Te]c2ccccc23)cc1 [ITeU2, TeBTM] | 17.09 | 0.66 | 14.62 |  |
| c1ccc2c(c1)[Te]C1=NCCCN12 [ITeU3, TeDHPB] | 17.13 | 0.65 | 16.63 | Second-order rate constant k2 exptl [6]: 19400 M⁻¹ s⁻¹; Second-order rate constant k2 exptl [7]: 127000 M⁻¹ s⁻¹; Second-order rate constant k2 exptl [8]: 731000 M⁻¹ s⁻¹; Second-order rate constant k2 exptl [9]: 1.67e+06 M⁻¹ s⁻¹; Brønsted basicity pKaH(DMSO) ([10]; in DMSO): 11.0; Brønsted basicity pKaH(MeCN) ([10]; in MeCN): 19.7 |
